Reference: ChEMBL document CHEMBL1128086, “Serine protease selectivity of the thrombin inhibitor D-Phe-Pro-Agmatine and its homologs” (Bioorg Med Chem Lett, 1995)

Tests used:
[1] = biological target: Thrombin & trypsin (Homo sapiens) (UniProt P00734+P07477+P07478+P35030); assay: Selectivity ratio of thrombin Kass to trypsin Kass; type: protein assay
[2] = biological target: Prothrombin (Homo sapiens) (UniProt P00734); assay: In vitro inhibitory potency against human alpha-thrombin
[3] = biological target: Urokinase-type plasminogen activator (Homo sapiens) (UniProt P00749); assay: In vitro inhibitory potency against Urokinase-type plasminogen activator in human; no enzyme inhibition was observed at an inhibitor concentration of 200 uM
[4] = biological target: Serine protease 1 (Homo sapiens) (UniProt P07477); assay: In vitro inhibitory potency against trypsin
[5] = Selectivity ratio of thrombin Kass to ntPA Kass
[6] = Selectivity ratio of thrombin Kass to plasmin Kass
[7] = biological target: Tissue-type plasminogen activator (Homo sapiens) (UniProt P00750); assay: In vitro inhibitory potency against n-tissue plasminogen activator in human
[8] = biological target: Plasminogen (Homo sapiens) (UniProt P00747); assay: In vitro inhibitory potency against plasmin; no enzyme inhibition was observed at an inhibitor concentration of 200 uM
[9] = biological target: Thrombin and urokinase-type plasminogen activator (Homo sapiens) (UniProt P00734+P00749); assay: Selectivity ratio of thrombin Kass to Urokinase Kass; type: protein assay
[10] = biological target: Tissue-type plasminogen activator (Homo sapiens) (UniProt P00750); assay: In vitro inhibitory potency against n-tissue plasminogen activator in human; no enzyme inhibition was observed at an inhibitor concentration of 200 uM
[11] = biological target: Urokinase-type plasminogen activator (Homo sapiens) (UniProt P00749); assay: In vitro inhibitory potency against Urokinase-type plasminogen activator in human
[12] = biological target: Plasminogen (Homo sapiens) (UniProt P00747); assay: In vitro inhibitory potency against plasmin
[13] = biological target: Tissue-type plasminogen activator (Homo sapiens) (UniProt P00750); assay: In vitro inhibitory potency against n-tissue plasminogen activator in humans; no enzyme inhibition was observed at an inhibitor concentration of 200 uM

Chain of Plasminogen (Homo sapiens) (P00747 97-580 limits assumed): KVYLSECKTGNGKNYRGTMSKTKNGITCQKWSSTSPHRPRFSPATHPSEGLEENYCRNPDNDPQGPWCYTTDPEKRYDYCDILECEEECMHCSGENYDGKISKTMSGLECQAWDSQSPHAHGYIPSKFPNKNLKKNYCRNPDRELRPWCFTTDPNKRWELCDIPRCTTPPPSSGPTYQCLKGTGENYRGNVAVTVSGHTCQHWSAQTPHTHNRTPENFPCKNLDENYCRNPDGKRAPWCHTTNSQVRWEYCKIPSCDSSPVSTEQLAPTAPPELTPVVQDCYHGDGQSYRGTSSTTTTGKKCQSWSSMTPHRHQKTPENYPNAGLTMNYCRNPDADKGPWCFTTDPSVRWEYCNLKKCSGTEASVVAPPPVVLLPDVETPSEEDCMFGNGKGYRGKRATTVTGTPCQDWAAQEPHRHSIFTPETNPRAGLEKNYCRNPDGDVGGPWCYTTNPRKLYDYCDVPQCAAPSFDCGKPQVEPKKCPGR
Chain of Plasminogen (Homo sapiens) (P00747 581-810 limits assumed): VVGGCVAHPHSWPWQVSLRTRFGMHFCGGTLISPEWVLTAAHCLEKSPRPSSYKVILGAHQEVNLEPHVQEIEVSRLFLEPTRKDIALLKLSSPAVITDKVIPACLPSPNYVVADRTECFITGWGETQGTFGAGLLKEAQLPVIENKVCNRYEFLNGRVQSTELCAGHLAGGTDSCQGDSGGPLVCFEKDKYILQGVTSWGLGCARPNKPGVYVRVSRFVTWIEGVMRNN
Chain of Tissue-type plasminogen activator (Homo sapiens) (P00750 36-562 limits assumed): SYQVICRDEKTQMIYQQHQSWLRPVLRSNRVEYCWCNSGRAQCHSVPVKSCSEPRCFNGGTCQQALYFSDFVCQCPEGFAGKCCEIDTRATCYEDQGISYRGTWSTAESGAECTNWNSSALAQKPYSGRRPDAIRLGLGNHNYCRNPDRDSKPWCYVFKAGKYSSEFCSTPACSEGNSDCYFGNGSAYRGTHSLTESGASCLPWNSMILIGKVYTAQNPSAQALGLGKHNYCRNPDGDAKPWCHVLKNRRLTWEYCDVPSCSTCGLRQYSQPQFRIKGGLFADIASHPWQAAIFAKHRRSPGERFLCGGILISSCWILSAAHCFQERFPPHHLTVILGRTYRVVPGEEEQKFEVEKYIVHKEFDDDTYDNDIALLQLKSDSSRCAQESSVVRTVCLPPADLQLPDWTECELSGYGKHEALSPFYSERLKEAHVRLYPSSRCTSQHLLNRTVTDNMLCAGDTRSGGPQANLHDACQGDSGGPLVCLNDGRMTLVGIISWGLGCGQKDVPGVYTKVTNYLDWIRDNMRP
Chain of Serine protease 1 (Homo sapiens) (P07477 whole entry): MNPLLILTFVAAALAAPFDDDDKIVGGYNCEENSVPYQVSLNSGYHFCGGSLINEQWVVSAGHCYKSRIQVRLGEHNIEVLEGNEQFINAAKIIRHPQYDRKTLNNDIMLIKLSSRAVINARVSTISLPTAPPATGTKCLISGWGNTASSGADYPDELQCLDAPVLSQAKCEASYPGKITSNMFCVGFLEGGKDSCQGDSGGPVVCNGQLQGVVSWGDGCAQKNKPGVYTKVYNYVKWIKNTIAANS

Compound | Ratio [1] | K ass [2] | K ass [3] | K ass [4] | Ratio [5] | Ratio [6] | K ass [7] | K ass [8] | Ratio [9] | K ass [10] | K ass [11] | K ass [12] | K ass [13]
NC(N)=NCCCNC(=O)[C@@H]1CCCN1C(=O)[C@H](N)Cc1ccccc1 | 100 | 1.4e+06 l M-1 | < 250 l M-1 | 14000 l M-1 | 341 | > 5600 | 4100 l M-1 | < 250 l M-1 | 5600 |  |  |  | 
NC(N)=NCCCCCCNC(=O)[C@@H]1CCCN1C(=O)[C@H](N)Cc1ccccc1 |  | 24000 l M-1 | < 250 l M-1 | 600 l M-1 |  |  |  | < 250 l M-1 |  | < 250 l M-1 |  |  | 
NC(N)=NCCC[C@@H](C=O)NC(=O)[C@@H]1CCCN1C(=O)[C@H](N)Cc1ccccc1 | 5.1 | 5.4e+08 l M-1 |  | 1.1e+08 l M-1 | 1800 | 390 | 290000 l M-1 |  | 13000 |  | 42000 l M-1 | 1.4e+06 l M-1 | 
NC(N)=NCCCCNC(=O)C1CCCN1C(=O)[C@H](N)Cc1ccccc1 (some centres undefined) | 33 | 5.5e+06 l M-1 |  | 170000 l M-1 | 920 | 4600 | 6000 l M-1 |  | 31000 |  | 180 l M-1 | 1200 l M-1 | 
NC(N)=NCCCCCNC(=O)[C@@H]1CCCN1C(=O)[C@H](N)Cc1ccccc1 | 480 | 1.3e+06 l M-1 | < 250 l M-1 | 2700 l M-1 | > 5200 | > 5200 |  | < 250 l M-1 | > 5200 |  |  |  | < 250 l M-1
CN[C@H](Cc1ccccc1)C(=O)N1CCC[C@H]1C(=O)N[C@H](C=O)CCCNC(=N)N | 5.2 | 4.6e+08 l M-1 |  | 8.8e+07 l M-1 | 8500 | 260 | 50000 l M-1 |  | 14000 |  | 32000 l M-1 | 1.8e+06 l M-1 | 
CN[C@H](Cc1ccccc1)C(=O)N1CCC[C@H]1C(=O)NCCCCN=C(N)N | 10 | 2.4e+06 l M-1 |  | 240000 l M-1 | 2100 | 2100 | 1100 l M-1 |  | 13000 |  | 180 l M-1 | 1100 l M-1 | 
